# From patent US9493446B2, “Orexin receptor antagonists which are [ortho bi-(hetero-)aryl]-[2-(meta bi-(hetero-)aryl)-pyrrolidin-1-yl]-methanone derivatives” (Actelion Pharmaceuticals Ltd, priority 2012, dated 2016)
# Read-outs that look alike come from different tables or passages of the source.
# Assays:
# [1] = target: orexin-1 (Homo sapiens (Human), UniProt O43613); assay: Intracellular calcium measurement (FLIPR), CHO cells expressing human orexin-1 receptor, 3 nM orexin-A; assay type: cell-based; conditions: read-out: IC50 OX1
# Procedure: (§1) In Vitro Assay: Intracellular Calcium Measurements:
# (§2) Chinese hamster ovary (CHO) cells expressing the human orexin-1 receptor and the human orexin-2 receptor, respectively, are grown in culture medium (Ham F-12 with L-Glutamine) containing 300 μg/mL G418, 100 U/mL penicillin, 100 μg/mL streptomycin and 10% heat inactivated fetal calf serum (FCS). The cells are seeded at 20,000 cells/well into 384-well black clear bottom sterile plates (Greiner). The seeded plates are incubated overnight at 37° C. in 5% CO2.
# (§3) Human orexin-A as an agonist is prepared as 1 mM stock solution in MeOH: water (1:1), diluted in HBSS containing 0.1% bovine serum albumin (BSA), NaHCO3: 0.375 g/L and 20 mM HEPES for use in the assay at a final concentration of 3 nM.
# (§4) Antagonists are prepared as 10 mM stock solution in DMSO, then diluted in 384-well plates using DMSO followed by a transfer of the dilutions into in HBSS containing 0.1% bovine serum albumin (BSA), NaHCO3: 0.375 g/L and 20 mM HEPES. On the day of the assay, 50 μL of staining buffer (HBSS containing 1% FCS, 20 mM HEPES, NaHCO3: 0.375 g/L, 5 mM probenecid (Sigma) and 3 μM of the fluorescent calcium indicator fluo-4 AM (1 mM stock solution in DMSO, containing 10% pluronic) is added to each well. The 384-well cell-plates are incubated for 50 min at 37° C. in 5% CO2 followed by equilibration at rt for 30 min before measurement.
# (§5) Within the Fluorescent Imaging Plate Reader (FLIPR Tetra, Molecular Devices), antagonists are added to the plate in a volume of 10 μL/well, incubated for 120 min and finally 10 μL/well of agonist is added. Fluorescence is measured for each well at 1 second intervals, and the height of each fluorescence peak is compared to the height of the fluorescence peak induced by 3 nM orexin-A with vehicle in place of antagonist. […] Optimized conditions were achieved by adjustment of pipetting speed and cell splitting regime. The calculated IC50 values may fluctuate depending on the daily cellular assay performance. Fluctuations of this kind are known to those skilled in the art.
# [2] = target: human orexin-2 receptor (Homo sapiens (Human), UniProt O43614); assay: Intracellular calcium measurement (FLIPR), CHO cells expressing human orexin-2 receptor, 3 nM orexin-A; assay type: cell-based; conditions: read-out: IC50 OX2
# Procedure: as §1, §2, §3, §4, §5
# [3] = CHO cells expressing human orexin-1 receptor, FLIPR, 3 nM orexin-A, geometric mean if determined several times
# [4] = CHO cells expressing human orexin-2 receptor, FLIPR, 3 nM orexin-A, geometric mean if determined several times
# Sequence of orexin-1 (O43613 whole entry): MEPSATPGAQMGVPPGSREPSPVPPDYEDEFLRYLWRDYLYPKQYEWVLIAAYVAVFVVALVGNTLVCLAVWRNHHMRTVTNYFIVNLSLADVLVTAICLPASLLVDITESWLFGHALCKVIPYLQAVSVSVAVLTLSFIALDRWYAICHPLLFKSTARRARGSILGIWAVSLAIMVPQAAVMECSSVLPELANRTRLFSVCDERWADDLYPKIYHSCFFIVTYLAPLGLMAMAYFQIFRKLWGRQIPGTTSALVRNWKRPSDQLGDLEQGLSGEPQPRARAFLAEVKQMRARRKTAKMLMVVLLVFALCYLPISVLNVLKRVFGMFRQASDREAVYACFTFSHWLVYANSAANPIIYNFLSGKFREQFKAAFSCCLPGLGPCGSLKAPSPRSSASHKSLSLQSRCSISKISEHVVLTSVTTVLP
# Sequence of human orexin-2 receptor (O43614 whole entry): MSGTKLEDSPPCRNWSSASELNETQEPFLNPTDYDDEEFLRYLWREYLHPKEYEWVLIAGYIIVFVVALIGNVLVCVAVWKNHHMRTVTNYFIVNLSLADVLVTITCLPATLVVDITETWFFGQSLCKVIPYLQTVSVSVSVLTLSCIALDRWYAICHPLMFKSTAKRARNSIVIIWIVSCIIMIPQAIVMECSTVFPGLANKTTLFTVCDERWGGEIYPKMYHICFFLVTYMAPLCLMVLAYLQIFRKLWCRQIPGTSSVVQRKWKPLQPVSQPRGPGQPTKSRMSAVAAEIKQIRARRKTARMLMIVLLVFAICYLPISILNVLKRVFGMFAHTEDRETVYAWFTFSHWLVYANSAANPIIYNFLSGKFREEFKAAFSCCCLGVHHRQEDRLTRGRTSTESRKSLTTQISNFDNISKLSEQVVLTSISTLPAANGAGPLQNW
Compound,"IC50 [1, 3] [nM]","IC50 [2, 4] [nM]",IC50 [1] [nM],IC50 [2] [nM]
"Cc1ccc(-n2nccn2)c(C(=O)N2CCC[C@H]2c2nc(-c3ccccc3C)no2)c1 [compound 16, (5-Methyl-2-[1,2,3]triazol-2-yl-phenyl)-[(S)-2-(3-o-tolyl-[1,2,4]oxadiazol-5-yl)-pyrrolidin-1-yl]-methanone]",128,16,–,–
"Cc1ccc(-n2nccn2)c(C(=O)N2CCC[C@H]2c2nc(-c3ccccc3OC(F)(F)F)no2)c1 [compound 17, (5-Methyl-2-[1,2,3]triazol-2-yl-phenyl)-{(S)-2-[3-(2-trifluoromethoxy-phenyl)-[1,2,4]oxadiazol-5-yl]-pyrrolidin-1-yl}-methanone]",8,5,–,–
Cc1ccc(-n2nccn2)c(C(=O)N2CCC[C@H]2c2nc(-c3cccc(Cl)c3)no2)c1 [compound 18],–,32,91,–
"Cc1ccc(-n2nccn2)c(C(=O)N2CCC[C@H]2c2nc(-c3ccc4c(c3)OC(F)(F)O4)no2)c1 [compound 19, {(S)-2-[3-(2,2-Difluoro-benzo[1,3]dioxol-5-yl)-[1,2,4]oxadiazol-5-yl]-pyrrolidin-1-yl}-(5-methyl-2-[1,2,3]triazol-2-yl-phenyl)-methanone]",1860,652,–,–
"Cc1ccc(-n2nccn2)c(C(=O)N2CCC[C@H]2c2nc(-c3ccc(F)c(F)c3)no2)c1 [compound 20, {(S)-2-[3-(3,4-Difluoro-phenyl)-[1,2,4]oxadiazol-5-yl]-pyrrolidin-1-yl}-(5-methyl-2-[1,2,3]triazol-2-yl-phenyl)-methanone]",600,177,–,–
Cc1ccc(-n2nccn2)c(C(=O)N2CCC[C@H]2c2nc(-c3ccccc3Cl)no2)c1 [compound 21],339,19,–,–
"Cc1ccc(-n2nccn2)c(C(=O)N2CCC[C@H]2c2nc(-c3ccc4c(c3)OCO4)no2)c1 [compound 22, [(S)-2-(3-Benzo[1,3]dioxol-5-yl-[1,2,4]oxadiazol-5-yl)-pyrrolidin-1-yl]-(5-methyl-2-[1,2,3]triazol-2-yl-phenyl)-methanone]",942,322,–,–
Cc1ccc(-n2nccn2)c(C(=O)N2CCC[C@H]2c2nc(-c3cccc(Cl)c3C)no2)c1 [compound 23],40,7,–,–
Cc1ccc(-n2nccn2)c(C(=O)N2CCC[C@H]2c2nc(-c3c(C)cccc3Cl)no2)c1 [compound 24],472,104,–,–
"CCc1ccccc1-c1noc([C@@H]2CCCN2C(=O)c2cc(C)ccc2-n2nccn2)n1 [compound 25, {(S)-2-[3-(2-Ethyl-phenyl)-[1,2,4]oxadiazol-5-yl]-pyrrolidin-1-yl}-(5-methyl-2-[1,2,3]triazol-2-yl-phenyl)-methanone]",19,11,–,–
"Cc1ccc(-n2nccn2)c(C(=O)N2CCC[C@H]2c2nc(-c3cccc(F)c3C)no2)c1 [compound 26, {(S)-2-[3-(3-Fluoro-2-methyl-phenyl)-[1,2,4]oxadiazol-5-yl]-pyrrolidin-1-yl}-(5-methyl-2-[1,2,3]triazol-2-yl-phenyl)-methanone]",77,5,–,–
Cc1ccc(-n2nccn2)c(C(=O)N2CCC[C@H]2c2nc(-c3cccc(C)c3Cl)no2)c1 [compound 27],125,–,–,8
Cc1ccc(-n2nccn2)c(C(=O)N2CCC[C@H]2c2nc(-c3cccnc3Cl)no2)c1 [compound 28],–,33,2610,–
"Cc1ccc(-n2nccn2)c(C(=O)N2CCC[C@H]2c2nc(-c3ccccc3C(F)(F)F)no2)c1 [compound 29, (5-Methyl-2-[1,2,3]triazol-2-yl-phenyl)-{(S)-2-[3-(2-trifluoromethyl-phenyl)-[1,2,4]oxadiazol-5-yl]-pyrrolidin-1-yl}-methanone]",249,39,–,–
"Cc1ccc(-n2nccn2)c(C(=O)N2CCC[C@H]2c2nc(-c3ccccc3O)no2)c1 [compound 31, {(S)-2-[3-(2-Hydroxy-phenyl)-[1,2,4]oxadiazol-5-yl]-pyrrolidin-1-yl}-(5-methyl-2-[1,2,3]triazol-2-yl-phenyl)-methanone]",2910,259,–,–
"COc1cc(-c2noc([C@@H]3CCCN3C(=O)c3cc(C)ccc3-n3nccn3)n2)ccn1 [compound 32, {(S)-2-[3-(2-Methoxy-pyridin-4-yl)-[1,2,4]oxadiazol-5-yl]-pyrrolidin-1-yl}-(5-methyl-2-[1,2,3]triazol-2-yl-phenyl)-methanone]",2290,955,–,–
"Cc1ccc(-n2nccn2)c(C(=O)N2CCC[C@H]2c2nc(-c3ccccc3OC(F)F)no2)c1 [compound 33, {(S)-2-[3-(2-Difluoromethoxy-phenyl)-[1,2,4]oxadiazol-5-yl]-pyrrolidin-1-yl}-(5-methyl-2-[1,2,3]triazol-2-yl-phenyl)-methanone]",62,9,–,–
"Cc1ccc(-n2nccn2)c(C(=O)N2CCC[C@H]2c2nc(-c3c(C)cncc3C)no2)c1 [compound 37, {(S)-2-[3-(3,5-Dimethyl-pyridin-4-yl)-[1,2,4]oxadiazol-5-yl]-pyrrolidin-1-yl}-(5-methyl-2-[1,2,3]triazol-2-yl-phenyl)-methanone]",> 5640,1060,–,–
"Cc1ccc(-n2nccn2)c(C(=O)N2CCC[C@H]2c2nc(-c3cccc4c3OCCO4)no2)c1 [compound 38, {(S)-2-[3-(2,3-Dihydro-benzo[1,4]dioxin-5-yl)-[1,2,4]oxadiazol-5-yl]-pyrrolidin-1-yl}-(5-methyl-2-[1,2,3]triazol-2-yl-phenyl)-methanone]",23,12,–,–
"Cc1ccc(-n2nccn2)c(C(=O)N2CCC[C@H]2c2nc(-c3cccc4[nH]ccc34)no2)c1 [compound 39, {(S)-2-[3-(1H-Indol-4-yl)-[1,2,4]oxadiazol-5-yl]-pyrrolidin-1-yl}-(5-methyl-2-[1,2,3]triazol-2-yl-phenyl)-methanone]",658,92,–,–
"CCOc1ccccc1-c1noc([C@@H]2CCCN2C(=O)c2cc(C)ccc2-n2nccn2)n1 [compound 40, {(S)-2-[3-(2-Ethoxy-phenyl)-[1,2,4]oxadiazol-5-yl]-pyrrolidin-1-yl}-(5-methyl-2-[1,2,3]triazol-2-yl-phenyl)-methanone]",22,4,–,–
"CCOc1ncccc1-c1noc([C@@H]2CCCN2C(=O)c2cc(C)ccc2-n2nccn2)n1 [compound 41, {(S)-2-[3-(2-Ethoxy-pyridin-3-yl)-[1,2,4]oxadiazol-5-yl]-pyrrolidin-1-yl}-(5-methyl-2-[1,2,3]triazol-2-yl-phenyl)-methanone]",22,7,–,–
"COc1ccc2[nH]cc(-c3noc([C@@H]4CCCN4C(=O)c4cc(C)ccc4-n4nccn4)n3)c2c1 [compound 42, {(S)-2-[3-(5-Methoxy-1H-indol-3-yl)-[1,2,4]oxadiazol-5-yl]-pyrrolidin-1-yl}-(5-methyl-2-[1,2,3]triazol-2-yl-phenyl)-methanone]",112,108,–,–
"Cc1ccc(-n2nccn2)c(C(=O)N2CCC[C@H]2c2nc(-c3cccc(OC(F)F)c3)no2)c1 [compound 43, {(S)-2-[3-(3-Difluoromethoxy-phenyl)-[1,2,4]oxadiazol-5-yl]-pyrrolidin-1-yl}-(5-methyl-2-[1,2,3]triazol-2-yl-phenyl)-methanone]",284,23,–,–
"COCc1ccccc1-c1noc([C@@H]2CCCN2C(=O)c2cc(C)ccc2-n2nccn2)n1 [compound 44, {(S)-2-[3-(2-Methoxymethyl-phenyl)-[1,2,4]oxadiazol-5-yl]-pyrrolidin-1-yl}-(5-methyl-2-[1,2,3]triazol-2-yl-phenyl)-methanone]",110,14,–,–
CCCOc1ccccc1-c1noc([C@@H]2CCCN2C(=O)c2cc(C)ccc2-n2nccn2)n1 [compound 45],112,125,–,–
"Cc1ccc(-n2nccn2)c(C(=O)N2CCC[C@H]2c2nc(-c3cccc4cc[nH]c34)no2)c1 [compound 46, {(S)-2-[3-(1H-Indol-7-yl)-[1,2,4]oxadiazol-5-yl]-pyrrolidin-1-yl}-(5-methyl-2-[1,2,3]triazol-2-yl-phenyl)-methanone]",4,9,–,–
"COc1cc(OC)cc(-c2noc([C@@H]3CCCN3C(=O)c3cc(C)ccc3-n3nccn3)n2)c1 [compound 47, {(S)-2-[3-(3,5-Dimethoxy-phenyl)-[1,2,4]oxadiazol-5-yl]-pyrrolidin-1-yl}-(5-methyl-2-[1,2,3]triazol-2-yl-phenyl)-methanone]",316,90,–,–
